Experimental data taken from ChEMBL document CHEMBL1142341, “Vinyl ester-based cyclic peptide proteasome inhibitors” (Bioorg Med Chem Lett, 2008).
Residues, ends and D or L forms follow the SMILES beside them. *: point of attachment. X1 = CCOC(=O)/C=C/[C@H](CC(C)C)N*

Assay: Half life in human plasma
Format: ADME, cell-free

half-life, > 6 h:
CCOC(=O)/C=C/[C@H](CC(C)C)NC(=O)CC[C@@H]1NC(=O)[C@H](CC(C)C)NC(=O)[C@H](CC(C)C)NC(=O)[C@H](Cc2ccccc2)NC1=O (cyclo(E(X1)FLL)), CCOC(=O)/C=C/[C@H](CC(C)C)NC(=O)C[C@@H]1NC(=O)[C@H](CC(C)C)NC(=O)[C@H](CC(C)C)NC(=O)[C@H](Cc2ccccc2)NC1=O (cyclo(D(X1)FLL)), CCOC(=O)/C=C/[C@H](CC(C)C)NC(=O)C[C@@H]1NC(=O)[C@H](CO)NC(=O)[C@H](C(C)C)NC(=O)[C@H](Cc2ccccc2)NC1=O (cyclo(D(X1)FVS))
